For 26 compounds, IC50 results are on record in patent US8163771B2, “11 β-HSD1 modulators” (Exelixis, Inc., priority 2008, dated 2012).

In general, IC50 refers to the concentration at which inhibition is half-maximal.

The target of the assay is T1, recombinant human 11 β-HSD1 (Homo sapiens, UniProt P28845).
T1 construct: made in house; host or cells: E. coli
The assay can be described thus: 11 β-HSD1 SPA Assay (Scintillation Proximity Assay). The class given is biochemical. The method, boiled down: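 Scintillation proximity read-out of cortisol formed from 40 nM [3H]cortisone by purified recombinant human enzyme (30-100 nM, E. coli) with 1 mM NADPH, pH7.4, 2 hours at room temperature; beads with cortisol antibody and glycyrrhetinic acid stop the reaction, read next day. IC50 derived from inhibition normalised to background and maximal wells.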
On the technique in general: SPA uses beads or plates that emit light when radiolabelled molecules are held near them.

Bounds are passed on as bounds.

T1 sequence (P28845 whole entry): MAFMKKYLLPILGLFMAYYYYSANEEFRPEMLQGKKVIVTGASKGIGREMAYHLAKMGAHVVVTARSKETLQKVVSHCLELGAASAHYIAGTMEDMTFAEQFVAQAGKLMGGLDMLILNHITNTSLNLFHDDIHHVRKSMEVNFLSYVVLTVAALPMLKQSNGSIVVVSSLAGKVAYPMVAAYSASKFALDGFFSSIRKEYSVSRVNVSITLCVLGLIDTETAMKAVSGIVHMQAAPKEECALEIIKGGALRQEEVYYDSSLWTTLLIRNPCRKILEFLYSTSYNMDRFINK

Take `CC(C)(Oc1ccc(F)cc1S(C)(=O)=O)C(=O)N[C@H]1C[C@H]2CC[C@@H](C1)N2c1ccc(C(=O)NCC(F)(F)F)cn1` [Example 296, 6-{3-endo-[(2-{[4-fluoro-2-(methylsulfonyl)phenyl]oxy}-2-methylpropanoyl)amino]-8-azabicyclo[3.2.1]oct-8-yl}-N-(2,2,2-trifluoroethyl)pyridine-3-carboxamide]: the IC50 was less than 200 nM.
For `CC(C)(Oc1ccc(Cl)c2ccccc12)C(=O)N[C@H]1C[C@H]2CC[C@@H](C1)N2c1ccc(C(N)=O)cn1` [Example 297, 6-[3-endo-({2-[(4-chloronaphthalen-1-yl)oxy]-2-methylpropanoyl}amino)-8-azabicyclo[3.2.1]oct-8-yl]pyridine-3-carboxamide], the half-maximal inhibitory concentration (IC50) is less than 200 nM.
Take `CC(C)(Oc1ccc(F)cc1S(C)(=O)=O)C(=O)N[C@H]1C[C@H]2CC[C@@H](C1)N2c1ccc(S(N)(=O)=O)cn1` [Example 298, N-{8-[5-(aminosulfonyl)pyridin-2-yl]-8-azabicyclo[3.2.1]oct-3-endo-yl}-2-{[4-fluoro-2-(methylsulfonyl)phenyl]oxy}-2-methylpropanamide]: the half-inhibitory concentration (IC50) is less than 2000 nM.
As for `CC(C)(Oc1ccc(Cl)cc1C(F)(F)F)C(=O)N[C@H]1C[C@H]2CC[C@@H](C1)N2c1ccc(S(C)(=O)=O)nc1` [Example 299, 2-{[4-chloro-2-(trifluoromethyl)phenyl]oxy}-2-methyl-N-{8-[6-(methylsulfonyl)pyridin-3-yl]-8-azabicyclo[3.2.1]oct-3-endo-yl}propanamide], the IC50 is less than 200 nM.
Then `CC(C)(Oc1ccccc1S(C)(=O)=O)C(=O)N[C@H]1C[C@H]2CC[C@@H](C1)N2c1ccc(C(=O)NCC(F)(F)F)cn1` [Example 300, 6-{3-endo-[(2-methyl-2-{[2-(methylsulfonyl)phenyl]oxy}-propanoyl)amino]-8-azabicyclo[3.2.1]oct-8-yl}-N-(2,2,2-trifluoroethyl)pyridine-3-carboxamide], with less than 2000 nM; and `CC(C)(Oc1ccc(Cl)cc1Cl)C(=O)N1[C@@H]2CC[C@H]1C[C@@H](Nc1ccc(C(N)=O)cn1)C2` [Example 302, 6-[(8-{2-[(2,4-dichlorophenyl)oxy]-2-methylpropanoyl}-8-azabicyclo[3.2.1]oct-3-endo-yl)amino]pyridine-3-carboxamide], with less than 200 nM.
For `CC(C)(Oc1cc(Cl)c(C(C)(C)O)cc1Cl)C(=O)N[C@H]1C[C@H]2CC[C@@H](C1)N2c1ccc(C(=O)NCC(F)F)cn1` [Example 303, 6-[3-endo-({2-[2,5-dichloro-4-(2-hydroxypropan-2-yl)phenoxy]-2-methylpropanoyl}amino)-8-azabicyclo[3.2.1]oct-8-yl]-N-(2,2-difluoroethyl)pyridine-3-carboxamide], the half-inhibitory concentration (IC50) was less than 200 nM.
Then `CC(C)(Oc1cc(F)c(C(C)(C)O)cc1Cl)C(=O)N[C@H]1C[C@H]2CC[C@@H](C1)N2c1ccc(C(=O)NCC(F)F)cn1` [Example 304, 6-[3-endo-({2-[2-chloro-5-fluoro-4-(2-hydroxypropan-2-yl)phenoxy]-2-methylpropanoyl}amino)-8-azabicyclo[3.2.1]oct-8-yl]-N-(2,2-difluoroethyl)pyridine-3-carboxamide], with less than 200 nM.
For `CC(C)(Oc1ccc(Cl)cc1C(F)(F)F)C(=O)N[C@H]1C[C@H]2CC[C@@H](C1)N2c1ccc(-c2nnn[nH]2)nc1` [Example 306, 2-{[4-chloro-2-(trifluoromethyl)phenyl]oxy}-2-methyl-N-{8-[6-(1H-tetrazol-5-yl)pyridin-3-yl]-8-azabicyclo[3.2.1]oct-3-endo-yl}propanamide], the half-inhibitory concentration (IC50) is less than 200 nM.
`CC(C)(Oc1ccc(Cl)cc1Cl)C(=O)N[C@H]1C[C@H]2CC[C@@H](C1)N2c1ccc(S(C)(=O)=O)nc1` [Example 307, 2-[(2,4-dichlorophenyl)oxy]-2-methyl-N-{8-[6-(methylsulfonyl)pyridin-3-yl]-8-azabicyclo[3.2.1]oct-3-endo-yl}propanamide]: the 50% inhibitory concentration (IC50) is less than 200 nM.
Regarding `CC(C)(C(=O)N[C@H]1C[C@H]2CC[C@@H](C1)N2c1ccc(S(C)(=O)=O)cn1)S(=O)(=O)c1ccc(Cl)cc1Cl` [Example 308, 2-[(2,4-dichlorophenyl)sulfonyl]-2-methyl-N-{8-[5-(methylsulfonyl)pyridin-2-yl]-8-azabicyclo[3.2.1]oct-3-endo-yl}propanamide], the IC50 was less than 2000 nM.
`CC(C)(Oc1cc(F)ccc1C(F)(F)F)C(=O)N[C@H]1C[C@H]2CC[C@@H](C1)N2c1ccc(C(N)=O)cn1` [Example 309, 6-{3-endo-[(2-{[5-fluoro-2-(trifluoromethyl)phenyl]oxy}-2-methylpropanoyl)amino]-8-azabicyclo[3.2.1]oct-8-yl}pyridine-3-carboxamide]: the half-inhibitory concentration (IC50) was less than 200 nM.
With `CC(C)(Oc1ccc2ccccc2n1)C(=O)N[C@H]1C[C@H]2CC[C@@H](C1)N2c1ccc(C(N)=O)cn1` [Example 310, 6-(3-endo-{[2-methyl-2-(quinolin-2-yloxy)propanoyl]amino}-8-azabicyclo[3.2.1]oct-8-yl)pyridine-3-carboxamide], the IC50 is less than 200 nM.
Then `CS(=O)(=O)c1cccc(C2(C(=O)N[C@H]3C[C@H]4CC[C@@H](C3)N4c3ccc(C(N)=O)cn3)CC2)c1` [Example 311, 6-{3-endo-[({1-[3-(methylsulfonyl)phenyl]cyclo-propyl}carbonyl)amino]-8-azabicyclo[3.2.1]oct-8-yl}pyridine-3-carboxamide], with less than 200 nM.
Take `CC(C)(COc1ccc(Cl)cc1C(F)(F)F)C(=O)N[C@H]1C[C@H]2CC[C@@H](C1)N2c1ccc(C(=O)NCC(F)(F)F)cn1` [Example 312, 6-{3-endo-[(3-{[4-chloro-2-(trifluoromethyl)phenyl]oxy}-2,2-dimethylpropanoyl)amino]-8-azabicyclo[3.2.1]oct-8-yl}-N-(2,2,2-trifluoroethyl)pyridine-3-carboxamide]: the IC50 is less than 200 nM.
Then `CS(=O)(=O)c1cccc(C2(C(=O)N[C@H]3C[C@H]4CC[C@@H](C3)N4c3ccc(S(N)(=O)=O)cn3)CC2)c1` [Example 313, N-{8-[5-(aminosulfonyl)pyridin-2-yl]-8-azabicyclo[3.2.1]oct-3-endo-yl}-1-[3-(methylsulfonyl)phenyl]cyclo-propanecarboxamide], with less than 2000 nM; and `CC(C)(Oc1ncc(Cl)cc1C(F)(F)F)C(=O)N[C@H]1C[C@H]2CC[C@@H](C1)N2c1ccc(S(C)(=O)=O)cn1` [Example 314, 2-{[5-chloro-3-(trifluoromethyl)pyridin-2-yl]oxy}-2-methyl-N-{8-[5-(methylsulfonyl)pyridin-2-yl]-8-azabicyclo[3.2.1]oct-3-endo-yl}propanamide], with less than 200 nM; and `CC(C)(Oc1ccc(F)cc1Cl)C(=O)N[C@H]1C[C@H]2CC[C@@H](C1)N2c1ccc(NS(C)(=O)=O)cc1` [Example 315, 2-[(2-chloro-4-fluorophenyl)oxy]-2-methyl-N-(8-{4-[(methylsulfonyl)amino]phenyl}-8-azabicyclo[3.2.1]oct-3-endo-yl)propanamide], with less than 200 nM.
For the compound `CC(C)(Oc1ccc2ccccc2c1)C(=O)N[C@H]1C[C@H]2CC[C@@H](C1)N2c1ccc(C(N)=O)cn1` [Example 316, 6-(3-endo-{[2-methyl-2-(naphthalen-2-yloxy)propanoyl]amino}-8-azabicyclo[3.2.1]oct-8-yl)pyridine-3-carboxamide], the concentration for half-maximal inhibition (IC50) is less than 200 nM.
For `CC(C)(Oc1ccc(Cl)cc1Cl)C(=O)N[C@H]1C[C@H]2CC[C@@H](C1)N2c1ccc(C(=O)NC2COC2)cn1` [Example 317, 6-[3-endo-({2-[(2,4-dichlorophenyl)oxy]-2-methylpropanoyl}amino)-8-azabicyclo[3.2.1]oct-8-yl]-N-oxetan-3-ylpyridine-3-carboxamide], the IC50 is less than 200 nM.
Then `CC(C)(Oc1ccnc2ccccc12)C(=O)N[C@H]1C[C@H]2CC[C@@H](C1)N2c1ccc(C(N)=O)cn1` [Example 318, 6-(3-endo-{[2-methyl-2-(quinolin-4-yloxy)propanoyl]amino}-8-azabicyclo[3.2.1]oct-8-yl)pyridine-3-carboxamide], with less than 200 nM.
With `CC(C)(Oc1cc(F)ccc1C(F)(F)F)C(=O)N[C@H]1C[C@H]2CC[C@@H](C1)N2c1ccc(C(=O)NCC(F)(F)F)cn1` [Example 319, 6-{3-endo-[(2-{[5-fluoro-2-(trifluoromethyl)phenyl]oxy}-2-methylpropanoyl)amino]-8-azabicyclo[3.2.1]oct-8-yl}-N-(2,2,2-trifluoroethyl)pyridine-3-carboxamide], the IC50 was less than 200 nM.
Take `CC(C)(Oc1ccc(Cl)cc1C1CCCC1)C(=O)N[C@H]1C[C@H]2CC[C@@H](C1)N2c1ccc(C(N)=O)cn1` [Example 320, 6-[3-endo-({2-[(4-chloro-2-cyclopentylphenyl)oxy]-2-methylpropanoyl}amino)-8-azabicyclo[3.2.1]oct-8-yl]pyridine-3-carboxamide]: the IC50 is less than 200 nM.
For the compound `CC(C)(Oc1ccc(Cl)cc1S(C)(=O)=O)C(=O)N[C@H]1C[C@H]2CC[C@@H](C1)N2c1ccc(C(=O)NCC(F)(F)F)cn1` [Example 321, 6-{3-endo-[(2-{[4-chloro-2-(methylsulfonyl)phenyl]oxy}-2-methylpropanoyl)amino]-8-azabicyclo[3.2.1]oct-8-yl}-N-(2,2,2-trifluoroethyl)pyridine-3-carboxamide], the IC50 was less than 200 nM.
Then `CC(C)(Oc1ccc(Cl)cc1-c1ccccc1)C(=O)N[C@H]1C[C@H]2CC[C@@H](C1)N2c1ccc(C(N)=O)cn1` [Example 322, 6-[3-endo-({2-[(5-chlorobiphenyl-2-yl)oxy]-2-methylpropanoyl}amino)-8-azabicyclo[3.2.1]oct-8-yl]pyridine-3-carboxamide], with less than 200 nM; and `CC(C)(Oc1ccc(Cl)cc1Cl)C(=O)N[C@H]1C[C@H]2CC[C@@H](C1)N2Cc1ccc(C(N)=O)cn1` [Example 323, 6-{[3-endo-({2-[(2,4-dichlorophenyl)oxy]-2-methylpropanoyl}amino)-8-azabicyclo[3.2.1]oct-8-yl]methyl}pyridine-3-carboxamide], with less than 2000 nM.
